{"source": "paper PMC2652713", "about": "“Molecular Blocking of CD23 Supports Its Role in the Pathogenesis of Arthritis” (PLoS ONE, 2009)", "key": {"[1]": {"tested_on": "iNOS mRNA in human CD23+ monocyte-derived macrophages", "experiment": "iNOS mRNA expression (RT-PCR) in CD23-activated human macrophages", "type": "cell-based", "conditions": "CD23-McAb 20 µg/ml, 1 h pre-incubation with 10 µg/ml peptide, versus HPRT mRNA", "experimental": "Figure 2 Inhibition of CD23-mediated activation of iNOS pathway in human macrophages by p30A. Human CD23^+ monocyte-derived macrophages were incubated with cross-linking CD23-McAb (20 µg/ml) alone or following 1 h pre-incubation with 10 µg/ml of various peptides. […] Expression of iNOS mRNA was compared to HPRT mRNA levels. (B) Inhibition of NO generation from human activated macrophages by synthetic peptides. Cell supernatants were collected 72 h following cell cultures and levels of nitrites were determined. […] Results are expressed as mean of 3 distinct donor cell preparations (SEM<20%). (C) Inducible NOS-mediated NO generation in human macrophages is decreased following pre-incubation with p30A or L-NIL prior to CD23-mediated activation. Results are expressed as mean±s.d. of 7 distinct donor cell preparations.\nMonocytes or macrophages were activated through CD23 pathway: while monocytes/macrophages from RA patients express CD23, monocytes from healthy donors must be pre-activated to express surface CD23 as described. […] Cells supernatants were then analyzed for their nitric oxide content (see below) and for the presence of cytokines: levels of TNF-α and IL-6 were determined in duplicates for each sample by a specific ELISA (R&D, Paris, France) while levels of IL-1β, IL-8 and IL-10 was determined using FlowCytomix Human Th1/Th2 Kit as recommended (Bender Medsystems, Vienna, Austria). […]"}, "[2]": {"tested_on": "rat peritoneal macrophages", "experiment": "NO generation by IgE/DNP-activated rat peritoneal macrophages", "type": "cell-based", "experimental": "Figure 6 Inhibition of in vitro and in vivo inflammatory responses in rats by p30A peptide. (A) Rat peritoneal macrophages were activated via CD23 antigens with/without p30A, L-NIL or pCtl. Cell supernatants were collected 48 h later and nitrite levels were quantified. Values are mean±s.d. of cells from 3 different rats. (B) Cumulative clinical score/rat obtained following 50 days post-immunization in all groups. AIA rats were treated either after or before (d0) the onset of symptoms. Treatment consisted of p30A, hydrocortisone (HC, 30 mg/rat)) or pCtl (100 mg/rat). Shown are means of cumulative score/rat±s.d. from 5 (HC) or 8 rats (other conditions). (C) Evolution of arthritis severity scores of adjuvant-induced arthritis (AIA) in rats treated with intracutaneous p30A or pCtl (100 mg/rat) or hydrocortisone (after the onset of clinical signs as illustrated by arrows (means from 8 rats, s.e.m.<20%). (D) Histopathologic analysis confirm p30A ability to decrease all components of AIA lesions: pannus formation and inflammation of the synovium (P), deformity of joint and bones (asterix), bone remodeling and destruction (arrowhead), bone neoformation (arrows) and cartilage destruction.\nCulture supernatants (72 h) were assayed for the stable end-product of NO, NO2 ^− using the Griess reaction modified as detailed elsewhere. […]"}}, "note": "Entries after “also recorded” stand apart in the source; their conditions may differ.", "data": [{"substance": "FHENWPS [p30A]", "values": [{"measurement": "iNOS-encoding mRNA level", "setting": "[1]", "result": "reduced the levels of inducible nitric oxide synthase (iNOS)-encoding mRNA; also recorded: decreased in cells pre-incubated with p30A"}, {"measurement": "reversal of IgE/DNP activation", "setting": "[2]; rat macrophages ex-vivo", "result": "able to reverse the IgE/DNP activation of rat macrophages ex-vivo"}, {"measurement": "CD23-mediated induction of NO generation", "setting": "[2]; rat peritoneal macrophages, IgE/DNP, peptide 1 h prior, supernatants at 48 h, 3 rats", "result": "significant decrease in CD23-mediated induction of NO generation"}]}]}
